We go through two compounds from PMC9291647, “Discovery of novel mRNA demethylase FTO inhibitors against esophageal cancer” (Journal of Enzyme Inhibition and Medicinal Chemistry, 2022).

The target of the experiment is fat mass and obesity-associated protein (FTO) (Homo sapiens, UniProt Q9C0B1). The experiment can be described thus: FTO demethylase assay with ssRNA substrate, nucleosides detected by LC/MS. It counts as biochemical.
fat mass and obesity-associated protein (FTO), sequence (Q9C0B1 whole entry): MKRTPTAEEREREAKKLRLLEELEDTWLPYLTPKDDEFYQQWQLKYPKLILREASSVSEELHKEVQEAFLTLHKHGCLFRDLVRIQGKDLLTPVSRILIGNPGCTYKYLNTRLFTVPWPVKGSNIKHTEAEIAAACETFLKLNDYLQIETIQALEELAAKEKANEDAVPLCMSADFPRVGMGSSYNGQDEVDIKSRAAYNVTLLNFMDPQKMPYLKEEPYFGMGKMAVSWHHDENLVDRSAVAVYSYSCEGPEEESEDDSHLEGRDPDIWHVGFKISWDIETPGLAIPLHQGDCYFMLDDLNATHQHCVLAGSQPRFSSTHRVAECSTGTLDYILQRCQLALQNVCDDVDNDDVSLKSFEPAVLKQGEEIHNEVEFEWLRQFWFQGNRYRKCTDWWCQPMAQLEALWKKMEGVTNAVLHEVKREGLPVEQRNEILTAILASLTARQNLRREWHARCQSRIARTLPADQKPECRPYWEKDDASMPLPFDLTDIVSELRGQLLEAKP

For the compound `COc1c(C)cnc(Cn2cc(CNC(=O)c3c(F)c(F)c(F)c(F)c3F)nn2)c1C` [C6, 2,3,4,5,6-Pentafluoro-N-((1-((4-methoxy-3,5-dimethylpyridin-2-yl)methyl)-1H-1,2,3-triazol-4-yl)methyl)benzamide], the IC50 is 0.78 µM. `O=C(NCc1cn(Cc2nc3ccccc3[nH]2)nn1)c1c(F)c(F)c(F)c(F)c1F` [C8, N-((1-((1H-benzo[d]imidazol-2-yl)methyl)-1H-1,2,3-triazol-4-yl)methyl)-2,3,4,5,6-pentafluorobenzamide] registered an IC50 of 8.67 µM.

Usually IC50 stands for the concentration at which inhibition is half-maximal. A high value points to weaker potency in that assay.
